In US20070191395A1 (priority 2004, published 2007):
In brackets after ≈: the same amount, converted by molar mass.

Key:
Type in all cases: cell-based
[1] = system: Candida albicans ATCC MYA-573; experiment: Antifungal activity, growth inhibition (alamar Blue), Candida albicans; conditions: GI50 versus drug non-addition growth
Experimental: (§1) Measuring method of the antifungal activities of the compounds of the present invention carried out in accordance with Japanese Journal of Medical Mycology, 40, 243-246, 1999, Japanese Society for Medical Mycology Standardization Committee, (alamar Blue), and the or 80% growth inhibition (GI50 or GI80) concentration (μg/ml) for drug non-addition growth as the positive control was measured.

[2] = system: Candida krusei ATCC 44507; experiment: Antifungal activity, growth inhibition (alamar Blue), Candida krusei; conditions: for GI50, 50% growth inhibition concentration, Candida krusei ATCC 44507: GI50 versus drug non-addition growth
Experimental: as §1

[3] = system: Candida glabrata ATCC 48435; experiment: Antifungal activity, growth inhibition (alamar Blue), Candida glabrata; conditions: GI80 versus drug non-addition growth
Experimental: as §1

[4] = system: Saccharomyces cerevisiae AY-14; experiment: Antifungal activity, growth inhibition (alamar Blue), Saccharomyces cerevisiae; conditions: GI80 versus drug non-addition growth
Experimental: as §1

Cc1c(-c2ccccc2)c(N2CC[C@H](N(C)C)C2)n2cc(C(C)C)nc2c1C#N [Example 8]
GI50, 50% growth inhibition concentration, Candida albicans ATCC MYA-573 [1]: 1 µg/mL (≈ 2.58 µM)
GI50, 50% growth inhibition concentration, Candida krusei ATCC 44507 [2]: >4 µg/mL
GI80, 80% growth inhibition concentration, Candida glabrata ATCC 48435 [3]: 0.125 µg/mL (≈ 0.323 µM)
GI80, 80% growth inhibition concentration, Saccharomyces cerevisiae AY-14 [4]: 2 µg/mL (≈ 5.16 µM)

Cc1c(-c2ccccc2)c(N2CC[C@H](N(C)C)C2)n2cc(C(C)(C)C)nc2c1C#N [Example 9, (3′S)-2-tert-Butyl-5-(3-dimethylaminopyrrolidin-1-yl)-7-methyl-6-phenylimidazo[1,2-a]pyridine-8-carbonitrile]
GI50, 50% growth inhibition concentration, Candida albicans ATCC MYA-573 [1]: 0.25 µg/mL (≈ 0.623 µM)
GI50, 50% growth inhibition concentration, Candida krusei ATCC 44507 [2]: >4 µg/mL
GI80, 80% growth inhibition concentration, Candida glabrata ATCC 48435 [3]: 0.25 µg/mL (≈ 0.623 µM)
GI80, 80% growth inhibition concentration, Saccharomyces cerevisiae AY-14 [4]: 0.125 µg/mL (≈ 0.311 µM)

Cc1c(-c2ccccc2)c(N2CC[C@H](N(C)C)C2)n2nc(C(C)(C)C)nc2c1C#N [Example 25]
GI50, 50% growth inhibition concentration, Candida albicans ATCC MYA-573 [1]: 4 µg/mL (≈ 9.94 µM)
GI50, 50% growth inhibition concentration, Candida krusei ATCC 44507 [2]: >4 µg/mL
GI80, 80% growth inhibition concentration, Candida glabrata ATCC 48435 [3]: 0.125 µg/mL (≈ 0.311 µM)
GI80, 80% growth inhibition concentration, Saccharomyces cerevisiae AY-14 [4]: 0.063 µg/mL (≈ 0.157 µM)

C=C(C)c1nc2c(C#N)c(C)c(-c3ccccc3)c(N3CC[C@H](N(C)C)C3)n2n1 [Example 33]
GI50, 50% growth inhibition concentration, Candida albicans ATCC MYA-573 [1]: 4 µg/mL (≈ 10.3 µM)
GI50, 50% growth inhibition concentration, Candida krusei ATCC 44507 [2]: 4 µg/mL (≈ 10.3 µM)
GI80, 80% growth inhibition concentration, Candida glabrata ATCC 48435 [3]: 0.008 µg/mL (≈ 0.0207 µM)
GI80, 80% growth inhibition concentration, Saccharomyces cerevisiae AY-14 [4]: 0.004 µg/mL (≈ 0.0103 µM)

Cc1c(-c2ccccc2)c(N2CC[C@H](N(C)C)C2)n2nc(C(C)(C)COCc3ccccc3)nc2c1C#N [Example 39]
GI50, 50% growth inhibition concentration, Candida albicans ATCC MYA-573 [1]: 0.5 µg/mL (≈ 0.983 µM)
GI50, 50% growth inhibition concentration, Candida krusei ATCC 44507 [2]: >4 µg/mL
GI80, 80% growth inhibition concentration, Candida glabrata ATCC 48435 [3]: 0.25 µg/mL (≈ 0.491 µM)
GI80, 80% growth inhibition concentration, Saccharomyces cerevisiae AY-14 [4]: 0.063 µg/mL (≈ 0.124 µM)

Cc1c(-c2ccccc2)c(N2CC[C@H](N(C)C)C2)n2nc(C(C)(C)C)cc2c1C#N [Example 62]
GI50, 50% growth inhibition concentration, Candida albicans ATCC MYA-573 [1]: 4 µg/mL (≈ 9.96 µM)
GI50, 50% growth inhibition concentration, Candida krusei ATCC 44507 [2]: 4 µg/mL (≈ 9.96 µM)
GI80, 80% growth inhibition concentration, Candida glabrata ATCC 48435 [3]: 2 µg/mL (≈ 4.98 µM)
GI80, 80% growth inhibition concentration, Saccharomyces cerevisiae AY-14 [4]: 2 µg/mL (≈ 4.98 µM)

OC(Cn1cncn1)(Cn1cncn1)c1ccc(F)cc1F [Fluconazole, reference compound]
GI50 ([1]; read-out: GI50, 50% growth inhibition concentration, Candida albicans ATCC MYA-573): > 4 µg/mL
GI50 ([2]; Pichia kudriavzevii, ATCC44507, GI50 versus drug non-addition growth, read-out: GI50, 50% growth inhibition concentration, Candida krusei ATCC 44507): > 4 µg/mL
GI80, 80% growth inhibition concentration, Candida glabrata ATCC 48435 [3]: 4 µg/mL (≈ 13.1 µM)
GI80, 80% growth inhibition concentration, Saccharomyces cerevisiae AY-14 [4]: 4 µg/mL (≈ 13.1 µM)
